Test systems include 786-0; CAKI-1; CCRF-CEM; HCC 2998; HT-29; IGROV-1; MOLT-4; NCI-H23; NCI-H522; OVCAR-8; SF-295; SK-OV-3; SNB-78; TK-10; UO-31; HOP-62; KM-20L2; OVCAR-4; MDA-MB-435; MDA-N.
Test in all cases: growth of human tumour cells (NCI), 48 h

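Exposure lasted 48 hours, with cells grown in 96-well plates and compounds tested at five concentrations. Abbreviation: GI50, concentration required for 50% inhibition of growth.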 Active and inactive are the calls of the source. No stated cut-off is given here; in the data, active = GI50 up to about 1.1 µM and inactive = higher. Some results are limits rather than exact numbers.

From ChEMBL document CHEMBL1201862, “PubChem BioAssay data set” (2004) come the findings set out here.

For `N#CCCC[Si]12OCCN(CCO1)CCO2`, the GI50 with 786-0, in the assay with CAKI-1, with CCRF-CEM, in the assay with HCC 2998, in the assay with HT-29 and in the assay on IGROV-1 was > 100 µM (inactive) in each case. Moreover, the GI50 in the assay with MOLT-4, in the assay on NCI-H23, in the assay on NCI-H522, with OVCAR-8, in the assay with SF-295 and in the assay with SK-OV-3 was > 100 µM (inactive) in each case. Moreover, the GI50 in the assay with SNB-78, in the assay with TK-10 and with UO-31 was > 100 µM (inactive) throughout.

Regarding `O=C1C=CC(=O)C2C1Cc1ccccc1C2c1ccccc1` (stereo not drawn), the GI50 with 786-0 was 38.5 µM (inactive); in the assay on CAKI-1, 59 µM (inactive); in the assay with CCRF-CEM, 20.3 µM (inactive); in the assay on HCC 2998 it was 21.7 µM (inactive); in the assay on HOP-62, > 100 µM (inactive); in the assay on HT-29, 37.8 µM (inactive). Besides, the GI50 in the assay with IGROV-1 was 67 µM (inactive); in the assay on KM-20L2, 50 µM (inactive); in the assay on MOLT-4 it was 32.7 µM (inactive); with NCI-H23, 62.1 µM (inactive); with NCI-H522, 20.9 µM (inactive); in the assay with OVCAR-4 it was 20.5 µM (inactive). Further, the GI50 in the assay with OVCAR-8 is 25.9 µM (inactive); in the assay on SF-295, > 100 µM (inactive); in the assay with SK-OV-3, > 100 µM (inactive); with TK-10 it was 74.1 µM (inactive); with UO-31 it was 47.1 µM (inactive).

As for `O=C(Nc1ccc(Cl)cc1Cl)C(=O)C(C(=O)c1ccc2ccccc2c1)C1OC(=O)c2ccccc21` (stereo not drawn), the GI50 in the assay on 786-0 is 5.97 µM (inactive); with CAKI-1 it was 13.5 µM (inactive); in the assay with HOP-62, 11.9 µM (inactive); with HT-29 it was 15.7 µM (inactive); in the assay with IGROV-1, 13.6 µM (inactive); in the assay with NCI-H23 it was 2.92 µM (inactive). The GI50 with NCI-H522 is > 10 µM (inactive); in the assay with OVCAR-4, 10.1 µM (inactive); in the assay on OVCAR-8, 6.34 µM (inactive); in the assay on SF-295, 4.02 µM (inactive); with SK-OV-3, 26.8 µM (inactive); in the assay on SNB-78, 3.33 µM (inactive). Further, the GI50 with UO-31 was 11.4 µM (inactive).

`Clc1ccccc1C(n1cc(Br)cn1)n1cc(Br)cn1`: the GI50 in the assay with 786-0 was > 10 µM (inactive); with CAKI-1, 19 µM (inactive); in the assay with CCRF-CEM, 20.9 µM (inactive); in the assay with HCC 2998 it was > 10 µM (inactive); in the assay with HOP-62, 25.5 µM (inactive); in the assay with HT-29 it was 13.8 µM (inactive). For the same compound, the GI50 in the assay with IGROV-1 is > 10 µM (inactive); with MOLT-4 it was 14.2 µM (inactive); in the assay on NCI-H23 it was 23.1 µM (inactive); in the assay on NCI-H522 it was 71.9 µM (inactive); in the assay with OVCAR-4 it was > 100 µM (inactive); in the assay with OVCAR-8 it was 19.3 µM (inactive). For the same compound, the GI50 is 16.2 µM (inactive) in the assay with SF-295; > 10 µM (inactive) with SK-OV-3; > 100 µM (inactive) with SNB-78; 23.6 µM (inactive) with TK-10; 12.6 µM (inactive) in the assay with UO-31.

Turning to `COc1cc2cc(C(=O)N3CC(COS(C)(=O)=O)c4c3cc([N+](=O)[O-])c3ccccc43)[nH]c2c(OC)c1OC` (stereo not drawn), the GI50 with 786-0 is 0.752 µM (active); in the assay with CAKI-1, 0.398 µM (active); in the assay with CCRF-CEM it was 0.778 µM (active); in the assay with HCC 2998 it was 0.291 µM (active); with HOP-62, 7.57 µM (inactive); in the assay on HT-29, 6.15 µM (inactive). Moreover, the GI50 in the assay with IGROV-1 was 23.5 µM (inactive); in the assay on MDA-MB-435 it was > 31.6 µM (inactive); with MDA-N it was 19.5 µM (inactive); with MOLT-4, 0.407 µM (active); with NCI-H23 it was 2.78 µM (inactive); with NCI-H522 it was 2.99 µM (inactive). Further, the GI50 was > 31.6 µM (inactive) in the assay on OVCAR-4; 2.15 µM (inactive) with OVCAR-8; 2.37 µM (inactive) in the assay with SF-295; 61.9 µM (inactive) with SK-OV-3; > 31.6 µM (inactive) in the assay on TK-10; 2.56 µM (inactive) with UO-31.

In the case of `O=C(O)c1cc(-c2ccc3c(O)ccc(O)c3c2)ccc1O`, the GI50 in the assay with 786-0 was 16.6 µM (inactive); with CAKI-1, 16.6 µM (inactive); with CCRF-CEM it was 1.87 µM (inactive); in the assay on HCC 2998 it was 16.4 µM (inactive); with HOP-62 it was 34.1 µM (inactive); in the assay with HT-29, 18.8 µM (inactive). The GI50 with IGROV-1 was 16.7 µM (inactive); with MDA-MB-435, 17.5 µM (inactive); in the assay on MDA-N, 16.7 µM (inactive); in the assay on MOLT-4, 3.01 µM (inactive); with NCI-H23, 25.8 µM (inactive); in the assay on NCI-H522 it was 15.3 µM (inactive). For the same compound, the GI50 in the assay with OVCAR-4 is 16.5 µM (inactive); in the assay on OVCAR-8, 23.7 µM (inactive); in the assay with SF-295 it was 18.2 µM (inactive); with SK-OV-3, > 10 µM (inactive); in the assay on TK-10, 20.3 µM (inactive); with UO-31 it was 17.4 µM (inactive).

Take `CC1=C(C(=O)Nc2ccccc2C)C(c2ccc([N+](=O)[O-])cc2)C(C(=O)Nc2ccccc2C)=C(C)N1`: the GI50 in the assay on 786-0 was 53.3 µM (inactive); in the assay with CAKI-1 it was 36.6 µM (inactive); in the assay with CCRF-CEM it was 27.2 µM (inactive); in the assay on HCC 2998, 47.3 µM (inactive); in the assay on HOP-62, > 100 µM (inactive); with HT-29 it was 44.9 µM (inactive). The GI50 is 78 µM (inactive) in the assay with IGROV-1; 51.9 µM (inactive) in the assay with KM-20L2; 25.3 µM (inactive) in the assay with MOLT-4; 37.5 µM (inactive) with NCI-H23; 32 µM (inactive) with NCI-H522; 41.8 µM (inactive) with OVCAR-4. Besides, the GI50 is > 100 µM (inactive) in the assay on OVCAR-8; 58.2 µM (inactive) in the assay on SF-295; > 100 µM (inactive) with SK-OV-3; 46.1 µM (inactive) with TK-10; 20.5 µM (inactive) with UO-31.

Take `CC(=O)CC(=O)CCCC(=O)Nc1ccc(Cl)cc1Cl`: the GI50 in the assay on 786-0, with CAKI-1, with HCC 2998, in the assay on HOP-62, in the assay on HT-29 and in the assay with IGROV-1 was > 100 µM (inactive) throughout. Further, the GI50 with KM-20L2, in the assay on MOLT-4, with NCI-H23, in the assay with NCI-H522, in the assay with OVCAR-4 and in the assay with OVCAR-8 was > 100 µM (inactive) each time. Moreover, the GI50 in the assay on SF-295, in the assay on SK-OV-3, in the assay with TK-10 and with UO-31 was > 100 µM (inactive) in each case.

In the case of `CCOc1ccc(N/C(Cl)=C(Cl)\C(=C(\Nc2ccc(OCC)cc2)n2nnc3ccccc32)[N+](=O)[O-])cc1`, the GI50 in the assay on 786-0 is 4.02 µM (inactive); in the assay on CAKI-1 it was 1.14 µM (inactive); in the assay with CCRF-CEM, 1.3 µM (inactive); in the assay with HCC 2998 it was 13.2 µM (inactive); in the assay with HOP-62, 33.1 µM (inactive); with HT-29 it was 1.75 µM (inactive). Moreover, the GI50 was 1.79 µM (inactive) with IGROV-1; 6.95 µM (inactive) in the assay with MDA-MB-435; 3.82 µM (inactive) with MDA-N; 2.85 µM (inactive) in the assay on MOLT-4; 6.38 µM (inactive) with NCI-H23; 1.08 µM (active) with NCI-H522. Moreover, the GI50 in the assay on OVCAR-4 is 10.3 µM (inactive); in the assay on OVCAR-8 it was 1.74 µM (inactive); in the assay with SF-295, 22.1 µM (inactive); in the assay on SK-OV-3 it was 66.5 µM (inactive); in the assay on TK-10 it was 4.49 µM (inactive); in the assay with UO-31 it was 4.45 µM (inactive).

For `Cc1cc(NS(=O)(=O)c2ccc(NC(=O)c3cccc4c(NNc5ccc(S(=O)(=O)N=C(N)N)cc5)c5ccccc5nc34)cc2)no1`, the GI50 in the assay with 786-0 is > 100 µM (inactive); with CAKI-1, > 100 µM (inactive); in the assay with CCRF-CEM it was 29 µM (inactive); in the assay with HCC 2998 it was 30.5 µM (inactive); in the assay with HOP-62, > 100 µM (inactive); with HT-29, 30.5 µM (inactive). Moreover, the GI50 in the assay on IGROV-1 was 45.6 µM (inactive); in the assay on MDA-MB-435 it was 92.9 µM (inactive); in the assay with MDA-N, 68.5 µM (inactive); with MOLT-4, 28 µM (inactive); in the assay on NCI-H23, 74.5 µM (inactive); in the assay on NCI-H522, 29 µM (inactive). For the same compound, the GI50 in the assay on OVCAR-4 was 58.7 µM (inactive); in the assay on OVCAR-8, 51.1 µM (inactive); with SF-295, 69.7 µM (inactive); in the assay on SK-OV-3, 54.2 µM (inactive); in the assay with TK-10, > 100 µM (inactive); with UO-31, 54.2 µM (inactive).

As to `Cc1occc1C(=S)Nc1ccc(Cl)c(/C=N/OC(C)(C)C)c1`, the GI50 in the assay on 786-0 was 18.7 µM (inactive); in the assay on CAKI-1, 17.2 µM (inactive); in the assay with CCRF-CEM, 17.8 µM (inactive); with HCC 2998, 16.6 µM (inactive); in the assay on HOP-62, 19.9 µM (inactive); in the assay on HT-29, 13.7 µM (inactive). Further, the GI50 in the assay on IGROV-1 was 23.8 µM (inactive); in the assay on MDA-MB-435 it was 16.6 µM (inactive); in the assay with MDA-N it was 18.9 µM (inactive); with MOLT-4, 9.51 µM (inactive); in the assay on NCI-H23 it was 15.3 µM (inactive); in the assay with NCI-H522, 11.7 µM (inactive). For the same compound, the GI50 in the assay on OVCAR-4 was 18.3 µM (inactive); with OVCAR-8 it was 18.9 µM (inactive); in the assay on SF-295, 13.3 µM (inactive); in the assay on SK-OV-3, 23 µM (inactive); in the assay with TK-10, 21.9 µM (inactive); in the assay with UO-31, 13.9 µM (inactive).

With `CC1(C)CCC2=C(O1)/C(=N\Nc1ccc(F)cc1)c1ccccc1C2=O`, the GI50 was 32.4 µM (inactive) in the assay on 786-0; 40.4 µM (inactive) with CAKI-1; 11.8 µM (inactive) with CCRF-CEM; 21.9 µM (inactive) in the assay on HCC 2998; 21.7 µM (inactive) with HOP-62; 18.9 µM (inactive) in the assay with HT-29. The GI50 in the assay with IGROV-1 is 31.9 µM (inactive); with MDA-MB-435, 18.1 µM (inactive); in the assay on MDA-N, 17.7 µM (inactive); in the assay on MOLT-4 it was 35.3 µM (inactive); with NCI-H23 it was 25.2 µM (inactive); in the assay with NCI-H522, 61.9 µM (inactive). For the same compound, the GI50 was 34.4 µM (inactive) in the assay with OVCAR-4; 41.8 µM (inactive) in the assay with OVCAR-8; 20.7 µM (inactive) with SF-295; 54.7 µM (inactive) with SK-OV-3; 38.9 µM (inactive) with TK-10; 38.2 µM (inactive) in the assay with UO-31.
